Test results published in US5674905A, “Bicyclooctane and bicycloheptane derivatives” (James Black Foundation Limited, priority 1992, dated 1997).

Tests used:
CCKB receptor = biological target: T1, CCKB receptor (Mus musculus, UniProt P56481); assay: radioligand binding assay at the CCKB receptor in mouse cortical membranes ([125I]-CCK8S); conditions: 150 min at 21±3°; for Ki: read-out: CCKB pKi (converted)
T1 construct: The cortex was dissected, weighed and homogenised in 40 ml ice-cold buffer; from tissue; host or cells: cerebral cortex membranes of male CD1 mice (Charles River)
T1 sequence (P56481 1-453): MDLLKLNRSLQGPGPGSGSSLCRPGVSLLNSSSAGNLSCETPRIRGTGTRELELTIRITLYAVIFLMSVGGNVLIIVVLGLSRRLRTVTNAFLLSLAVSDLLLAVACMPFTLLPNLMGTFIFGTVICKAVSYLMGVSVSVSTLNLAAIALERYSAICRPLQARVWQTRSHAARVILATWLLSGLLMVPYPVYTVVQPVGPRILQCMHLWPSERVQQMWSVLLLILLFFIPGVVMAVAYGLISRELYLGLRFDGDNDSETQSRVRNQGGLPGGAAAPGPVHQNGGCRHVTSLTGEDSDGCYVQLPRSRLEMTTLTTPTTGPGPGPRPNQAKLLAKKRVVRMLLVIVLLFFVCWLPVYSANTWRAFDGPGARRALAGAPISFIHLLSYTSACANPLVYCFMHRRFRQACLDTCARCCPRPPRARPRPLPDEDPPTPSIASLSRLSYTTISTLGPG
Experimental: The compounds of the examples were tested for binding at the CCKB receptor in mouse cortical membranes by means of a radioligand binding assay. The procedure was as follows:
The whole brains from male mice (CD1 22-25 g; Charles River) were removed and placed in ice-cold buffer (pH7.2 @ 21±3 °) of the following composition (mM); 10 HEPES, 130 NaCl, 4.7 KCl, 5 MgCl2, 1 EDTA and containing 0.25 g.1^-1 bacitracin. The cortex was dissected, weighed and homogenised in 40 ml ice-cold buffer using a Teflon-in-glass homogeniser. The homogenate was centrifuged at 39,800 g for 20 min at @ 4°, the supernatant discarded and the pellet resuspended by homogenisation in fresh buffer. The homogenate was recentrifuged (39,800 g; 20 min @4°) and the final pellet was resuspended in HEPES buffer to give a tissue concentration of 2 mg.ml^-1 (original wet weight).
The membranes ([…]) were incubated for 150 min at 21±3° in a final volume of 0.5 ml with HEPES buffer containing [^125 I]-CCK8S (0.05 ml; 200 pM NEN 2200 Ci.mmol^-1) and competing compound. Total and non-specific binding of [^125 I]-CCK8S were defined using 0.05 ml of buffer and 0.05 ml of […] L-365,260, respectively. The assay was terminated by rapid filtration through pre-soaked Whatman GF/B filters using a Brandell Cell harvester. The filters were washed (3×3 ml) with ice-cold 50 mM Tris-HC1 (pH7.4 @ 4° C.) and bound radioactivity determined by counting (1 min.) in a gamma-counter.

CCKA = biological target: T2, CCKA (Cavia porcellus, UniProt Q63931); assay: CCKA binding assay in guinea-pig pancreas membranes ([125I]-CCK8(S)); conditions: 150 minutes at 21±3°, 0.375 μM PD134,308, read-out: CCKA pKi (converted)
T2 construct: The pancreatata were removed from male guinea-pigs (200-300 g; Dunkin Hartley); from tissue; host or cells: pancreas membranes of male Dunkin Hartley guinea-pigs
T2 sequence (Q63931 1-430): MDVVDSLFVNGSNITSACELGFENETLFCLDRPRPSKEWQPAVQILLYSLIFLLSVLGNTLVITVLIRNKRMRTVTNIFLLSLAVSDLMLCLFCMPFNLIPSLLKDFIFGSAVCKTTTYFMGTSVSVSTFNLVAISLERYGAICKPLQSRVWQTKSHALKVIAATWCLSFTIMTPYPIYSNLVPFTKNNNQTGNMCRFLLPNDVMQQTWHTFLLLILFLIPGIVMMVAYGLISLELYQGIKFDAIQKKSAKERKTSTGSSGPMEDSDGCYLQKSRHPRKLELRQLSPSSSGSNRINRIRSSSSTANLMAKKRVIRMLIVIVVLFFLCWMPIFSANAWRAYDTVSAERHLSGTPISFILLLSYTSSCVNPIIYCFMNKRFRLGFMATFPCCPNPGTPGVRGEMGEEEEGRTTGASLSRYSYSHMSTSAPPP
Experimental: The compounds of the examples were also tested in a CCKA binding assay as follows:
The pancreatata were removed from male guinea-pigs (200-300 g; Dunkin Hartley) and placed in ice-cold HEPES buffer (pH 7.2 @ 21±3°). The pancreatata were homogenised in 40 ml ice-cold HEPES buffer using a polytron (Brinkmann, PT10, setting 10) 4×1 second. The homogenate was centrifuged at 39,800 g for 15 min at 4°. The supernatant was discarded and the pellet re-suspended using a Teflon-in-glass homogeniser in 20 volumes of fresh buffer and re-centrifuged as above. The final pellet was re-suspended using a Teflon-in-glass homogeniser to a tissue concentration of 1 mg.ml^-1 (original wet weight), and filtered through 500 μm pore-size Nytex mesh.
The membranes (400 μl; containing 0.375 μM PD134,308) are incubated for 150 minutes at 21±3° in a final volume of 0.5 ml with HEPES buffer containing [^125 I]-CCK8 (S)(50 μl; pM) and competing compound. Total and non-specific binding of [^125 I]-CCK8 (S) are defined using 50 μl of buffer and 50 μl of 100 nM L-364,718 respectively. The assay is terminated by rapid filtration through pre-soaked Whatman GF/B filters using a Brandell Cell Harvester. The filters were washed (3×3 ml) with ice-cold 50 mM Tris HCl (pH 7.4 at 4°) and bound radioactivity is determined by counting (1 min) in a gamma counter.

gastrin receptors = biological target: T3, gastrin receptors (Rattus norvegicus, UniProt P30553); assay: gastrin antagonist activity in an immature rat stomach assay (pentagastrin-stimulated acid secretion); conditions: isolated immature rat stomach, cumulative pentagastrin dose-response curves; for Kb: read-out: Gastrin pKB (converted); for Gastrin pKB: 60 min
T3 construct: from tissue; host or cells: isolated perfused whole stomach of immature rats (33-50 g, ca. 21 days old)
T3 sequence (P30553 1-452): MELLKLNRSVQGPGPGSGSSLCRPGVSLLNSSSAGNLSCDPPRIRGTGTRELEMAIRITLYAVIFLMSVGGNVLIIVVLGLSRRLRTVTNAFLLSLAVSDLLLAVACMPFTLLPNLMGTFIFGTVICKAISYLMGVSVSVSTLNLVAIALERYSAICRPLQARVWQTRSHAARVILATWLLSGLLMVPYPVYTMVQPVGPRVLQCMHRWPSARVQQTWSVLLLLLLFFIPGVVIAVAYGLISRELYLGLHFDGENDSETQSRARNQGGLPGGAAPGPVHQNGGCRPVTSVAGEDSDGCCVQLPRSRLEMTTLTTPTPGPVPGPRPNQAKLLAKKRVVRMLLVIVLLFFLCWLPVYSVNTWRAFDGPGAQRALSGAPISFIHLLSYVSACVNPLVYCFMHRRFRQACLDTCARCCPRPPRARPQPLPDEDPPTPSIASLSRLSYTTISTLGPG
Experimental: The compounds of the examples were also tested for gastrin antagonist activity in an immature rat stomach assay. The procedure was as follows:
The oesophagus of immature rats (33-50 g, ca. 21 days old) was ligated at the level of the cardiac sphincter and the duodenal sphincter was cannulated. The stomach was excised and flushed with ca. 1 ml of unbuffered physiological saline solution. The fundus was punctured and cannulated. A further 4-5 ml of unbuffered solution was flushed through the stomach to ensure the preparation was not leaking. The stomach was lowered into a jacketed organ bath containing 40 ml of buffered solution containing 3×10^-8 M 5-methyl-furmethide, maintained at 37° and gassed vigorously with 95% O2 /5% CO2. The stomach was continuously perfused at a rate of 1 ml min^-1 with unbuffered solution gassed with 100% O2 with the perfusate passing over an internally referenced pH-electrode fixed 12 cm above the stomach.
After 120 min of stabilisation the drugs were added directly to the serosal solution in the organ bath and after a further 60 min cumulative pentagastrin dose-response curves were started. Changes in acid secretion were monitored and the curves analysed according to Black et. al., Br. J. Pharmacol., 1985, 86, 581.

SMILES	Ki (CCKB receptor) [nM]	Ki (CCKA) [nM]	Kb (gastrin receptors) [nM]	CCKB pKi (CCKB receptor)	Gastrin pKB (gastrin receptors)
O=C(O)c1cc(NC(=O)[C@H](Cc2ccccc2)NC(=O)C2C3CCC(c4ccccc43)C2C(=O)NCC23CC4CC(CC(C4)C2)C3)cc(C(=O)O)c1 (stereo partly drawn) [Example 61, exo-cis-7-(1S-(3,5-dicarboxyphenylaminocarbonyl)-2-phenyl-ethylaminocarbonyl)-8-(1-adamantylmethylaminocarbonyl)-2,3-benzobicyclo[2.2.2]octane]	1000		251		
COC(=O)[C@H](C)NC(=O)C1C2CCC(c3ccccc32)C1C(=O)NCC12CC3CC(CC(C3)C1)C2 (stereo partly drawn) [Example 23, exo-cis-7-(1-S-Methoxycarbonyl-ethylaminocarbonyl)-8-(1-adamantylmethylaminocarbonyl)-2,3-benzobicyclo[2.2.2]octane]	398		316		
COC(=O)[C@H](C)NC(=O)C1C2C=CC(c3ccccc32)C1C(=O)NCC12CC3CC(CC(C3)C1)C2 (stereo partly drawn) [Example 8, endo-cis-7-(1--S--methoxycarbonylethylaminocarbonyl)-8-(1-adamantylmethylaminocarbonyl)-5,6-benzobicyclo[2.2.2]oct-2-ene]	631		501		
COC(=O)[C@H](C)NC(=O)C1C2C=CC(CC2)C1C(=O)NCC12CC3CC(CC(C3)C1)C2 (stereo partly drawn) [Example 24, endo-cis-2-(1-S-Methoxycarbonyl-ethylaminocarbonyl)-3-(1-adamantylmethylaminocarbonyl)-bicyclo[2.2.2]oct-5-ene]	10000		1260		
O=C(NCC12CC3CC(CC(C3)C1)C2)C1C2C=CC(c3ccccc32)C1C(=O)N[C@H](Cc1c[nH]c2ccccc12)C(=O)O (single isomer, unassigned) [Example 15, endo-cis-7-(2-R-(3-indolyl)-1-carboxy-ethylaminocarbonyl)-8-(1-adamantylmethylaminocarbonyl)-5,6-benzobicyclo[2.2.2]oct-2-ene]	1580		3160		

Continued, values first:

Ki (CCKB receptor) [nM]	Ki (CCKA) [nM]	Kb (gastrin receptors) [nM]	CCKB pKi (CCKB receptor)	Gastrin pKB (gastrin receptors)	SMILES
6310	7940				O=C1CC2c3ccccc3C1C(C(=O)N1CCC[C@@H]1C(=O)O)C2C(=O)NCC12CC3CC(CC(C3)C1)C2 (single isomer, unassigned) [Example 34, endo-cis-7-(2-R-carboxy-pyrrolidinocarbonyl)-8-(1-adamantylmethylaminocarbonyl)-2-oxo-5,6-benzobicyclo[2.2.2]octane]
398		1580			COC(=O)[C@H](C)NC(=O)C1C2C(C)=C(C)C(c3ccccc32)C1C(=O)NCC12CC3CC(CC(C3)C1)C2 (stereo partly drawn) [Example 19, exo-cis-7-(1-S-Methoxycarbonyl-ethylaminocarbonyl)-8-(1-adamantylmethylaminocarbonyl)-2,3-dimethyl-5,6-benzobicyclo[2.2.2]oct-2-ene]
			6.2	6.5	O=C(NCC12CC3CC(CC(C3)C1)C2)C1C2C=CC(c3ccccc32)C1C(=O)N1CCC[C@H]1C(=O)O (stereo partly drawn) [Example 27, exo-cis-7-(2-S-carboxy-pyrrolidinocarbonyl)-8-(1-adamantylmethylaminocarbonyl)-5,6-benzo-bicyclo[2.2.2]oct-2-ene]
2000		1580			O=C(NCC12CC3CC(CC(C3)C1)C2)C1C2C=CC(c3ccccc32)C1C(=O)N1CCC[C@@H]1C(=O)O (stereo partly drawn) [Example 10, endo-cis-7-(2-R-carboxy-pyrrolidinocarbonyl)-8-(1-adamantylmethylaminocarbonyl)-5,6-benzobicyclo[2.2.2]oct-2-ene]
2000		2510			O=C(O)C1C2C=CC(C2=C(c2ccccc2)c2ccccc2)C1C(=O)NCC12CC3CC(CC(C3)C1)C2 (racemic) [Example 39, (±)-endo and exo-cis-7-(1-adamantylmethylaminocarbonyl)-2-diphenylmethylene bicyclo-[2.2.1]hept-4-ene-6-carboxylic acid]
2510		2000			O=C(NCC12CC3CC(CC(C3)C1)C2)C1C2C=CC(c3ccccc32)C1C(=O)N1C[C@H](O)C[C@@H]1C(=O)O (stereo partly drawn) [Example 29, exo-cis-7-(2-R-carboxy-4-R-hydroxy-pyrrolidinocarbonyl)-8-(1-adamantylmethylaminocarbonyl)-5,6-benzo-bicyclo[2.2.2]oct-2-ene]
			5.1	5.6	COC(=O)C12CC(c3ccccc31)C(C(=O)NCC13CC4CC(CC(C4)C1)C3)C2C(=O)N1CCC[C@@H]1C(=O)O (mixture of isomers) [Example 56, (±)-1-methoxycarbonyl-endo-cis-6-(2R-carboxypyrrolidinocarbonyl)-7-(1-adamantylmethylaminocarbonyl)-2,3-benzobicyclo[2.2.1]heptane]
